Like-named read-outs stand apart in the source and are kept apart here.
Key:
HCV NS5B = target: T1, HCV NS5B (Hepatitis C virus genotype 1b, UniProt Q9WMX2); test: HCV NS5B RdRp enzyme assay; format: biochemical; conditions: HCV NS5B RdRp genotype 1b
T1 construct: The protein was expressed with an 18 amino acid C-terminal truncation to enhance the solubility; made in house; host or cells: E. coli BL21(DE3)
Procedure: HCV NS5B RdRp cloning, expression, and purification. The cDNA encoding the NS5B protein of HCV, genotype 1b, was cloned into the pET21a expression vector. The protein was expressed with an 18 amino acid C-terminal truncation to enhance the solubility. The E. coli competent cell line BL21(DE3) was used for expression of the protein. Cultures were grown at 37° C. for ˜4 hours until the cultures reached an optical density of 2.0 at 600 nm. The cultures were cooled to 20° C. and induced with 1 mM IPTG. Fresh ampicillin was added to a final concentration of 50 μg/ml and the cells were grown overnight at 20° C.
Cell pellets (3L) were lysed for purification to yield 15-24 mgs of purified NS5B. The lysis buffer consisted of 20 mM Tris-HCl, pH 7.4, 500 mM NaCl, 0.5% triton X-100, 1 mM DTT, 1 mM EDTA, 20% glycerol, 0.5 mg/ml lysozyme, 10 mM MgCl2, 15 ug/ml deoxyribonuclease I, and Complete TM protease inhibitor tablets (Roche). After addition of the lysis buffer, frozen cell pellets were resuspended using a tissue homogenizer. To reduce the viscosity of the sample, aliquots of the lysate were sonicated on ice using a microtip attached to a Branson sonicator. The sonicated lysate was centrifuged at 100,000×g for 1 hr at 4° C. and filtered through a 0.2 μm filter unit (Corning).
The protein was purified using three sequential chromatography steps: Heparin sepharose CL-6B, polyU sepharose 4B, and Hitrap SP sepharose (Pharmacia). The chromatography buffers were identical to the lysis buffer but contained no lysozyme, deoxyribonuclease I, MgCl2 or protease inhibitor and the NaCl concentration of the buffer was adjusted according to the requirements for charging the protein onto the column. Each column was eluted with a NaCl gradient which varied in length from 5-50 column volumes depending on the column type. After the final chromatography step, the resulting purity of the enzyme is >90% based on SDS-PAGE analysis. The enzyme was aliquoted and stored at −80° C.
Standard HCV NS5B RdRp enzyme assay. HCV RdRp genotype 1b assays were run in a final volume of 60 μl in 96 well plates (Costar 3912). The assay buffer is composed of 20 mM Hepes, pH 7.5, 2.5 mM KCl, 2.5 mM MgCl2, 1 mM DTT, 1.6 U RNAse inhibitor (Promega N2515), 0.1 mg/ml BSA (Promega R3961), and 2% glycerol. All compounds were serially diluted (3-fold) in DMSO and diluted further in water such that the final concentration of DMSO in the assay was 2%. HCV RdRp genotype 1b enzyme was used at a final concentration of 28 nM. A polyA template was used at 6 nM, and a biotinylated oligo-dT12 primer was used at 180 nM final concentration. Template was obtained commercially (Amersham 27-4110). Biotinylated primer was prepared by Sigma Genosys. 3H-UTP was used at 0.6 μCi (0.29 μM total UTP). Reactions were initiated by the addition of enzyme, incubated at 30° C. for 60 min, and stopped by adding 25 μl of 50 mM EDTA containing SPA beads (4 μg/μl, Amersham RPNQ 0007). Plates were read on a Packard Top Count NXT after >1 hr incubation at room temperature.
Modified HCV NS5B RdRp enzyme assay. A modified enzyme assay was performed essentially as described for the standard enzyme assay except for the following: The biotinylated oligo dT12 primer was precaptured on streptavidin-coated SPA beads by mixing primer and beads in assay buffer and incubating at room temperature for one hour. Unbound primer was removed after centrifugation. The primer-bound beads were resuspended in 20 mM Hepes buffer, pH 7.5 and used in the assay at final concentrations of 20 nM primer and 0.67 μg/μl beads. Order of addition in the assay: enzyme (14 nM) was added to diluted compound followed by the addition of a mixture of template (0.2 nM), 3H-UTP (0.6 μCi, 0.29 μM), and primer-bound beads, to initiate the reaction; concentrations given are final. Reactions were allowed to proceed for 4 hours at 30° C.
IC50 values for compounds were determined using seven different [I]. […]

HCV replicon genotype 1a = test: HCV Replicon Luciferase Reporter Assay (LE Assay), genotype 1a replicon; format: cell-based, HCV genotype 1a; conditions: Hepatitis C virus, read-out: LE NeoLuc EC50
Procedure: (§1) The HCV replicon luciferase assay was developed to monitor the inhibitory effects of compounds described in the disclosure on HCV viral replication. Utilization of a replicon luciferase reporter assay was first described by Krieger et al (Krieger N, Lohmann V, and Bartenschlager R, J. Virol. 75(10):4614-4624 (2001)). HUH-7 cells, constitutively expressing the HCV replicon, were grown in Dulbeccors Modified Eagle Media (DMEM) (Gibco-BRL) containing 10% Fetal calf serum (FCS) (Sigma) and 1 mg/ml G418 (Gibco-BRL). Compounds were serially diluted 3 folds in DMSO for a twenty-point titration and subsequently transferred to sterile 384-well tissue-culture treated plates (Coming cat #3571). The plates were then seeded with 50 μl of cells at a density of 3.0×10^3 cells/well in DMEM containing 4% FCS (final DMSO concentration at 0.5%). After 3 days incubation at 37° C., cells were analyzed for Renilla Luciferase activity using the EnduRen as substrate (Promega cat #E6485). The EnduRen substrate was diluted in DMEM and then added to the plates to a final concentration of 7.5 μM. The plates were incubated for 2 hrs at 37° C. and then read immediately for 30 seconds with Viewlux Imager (PerkinElmer) using a luminescence program. To assess cytotoxicity of compounds, CC50 values were generated by multiplexing the EnduRen-containing plates with Cell Titer-Blue (Promega, cat #G8082). 3 μl of Cell-Titer Blue was added to each well and incubated for 8 hrs at 37° C. The fluorescence signal from each well was read, with an excitation wavelength at 525/10 nm and an emission wavelength of 598/10 nm, using the Viewlux Imager.

HCV replicon = test: HCV Replicon Luciferase Reporter Assay (LE Assay); format: cell-based, HCV genotype 1b; conditions: Hepatitis C virus
Procedure: as §1

[1] = genotype 1b, Huh-7, read-out: LE NeoLuc EC50, Table 1, HUH-7 cells, genotype 1b replicon
[2] = Huh-7, Table 2, HUH-7 cells, read-out: LE NeoLuc EC50

T1 sequence (Q9WMX2 2420-2992): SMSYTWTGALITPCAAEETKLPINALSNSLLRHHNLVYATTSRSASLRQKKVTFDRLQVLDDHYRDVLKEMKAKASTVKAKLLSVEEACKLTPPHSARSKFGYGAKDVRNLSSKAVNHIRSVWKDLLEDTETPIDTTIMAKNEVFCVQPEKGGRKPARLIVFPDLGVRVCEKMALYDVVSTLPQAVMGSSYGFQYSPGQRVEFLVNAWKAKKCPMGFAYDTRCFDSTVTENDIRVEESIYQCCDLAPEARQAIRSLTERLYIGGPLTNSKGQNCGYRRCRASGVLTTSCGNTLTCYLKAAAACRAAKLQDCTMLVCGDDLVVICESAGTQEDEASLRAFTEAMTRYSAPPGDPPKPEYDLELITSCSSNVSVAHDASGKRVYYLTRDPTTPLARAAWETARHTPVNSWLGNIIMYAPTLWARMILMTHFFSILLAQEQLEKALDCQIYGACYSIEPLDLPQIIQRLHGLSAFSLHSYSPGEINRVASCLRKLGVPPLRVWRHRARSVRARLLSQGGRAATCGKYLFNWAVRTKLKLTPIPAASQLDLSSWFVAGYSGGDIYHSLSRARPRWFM

COc1ccc2c(c1)[C@@H]1C[C@]1(C(=O)N1CC34CCC3(CN(C(=O)N3CCCC3)C4)C1)Cn1c-2c(C2CCCCC2)c2ccc(C(=O)NS(=O)(=O)N(C)C)cc21 (some centres unmarked)
IC50 (HCV NS5B; Table 1): 1.9 to 500 nM | EC50 (HCV replicon genotype 1a): 1.9 to 500 nM

COc1ccc2c(c1)[C@@H]1C[C@]1(C(=O)N1CC34CCCC3(CN(C)C4)C1)Cn1c-2c(C2CCCCC2)c2ccc(C(=O)NS(=O)(=O)C(C)C)cc21 (some centres unmarked)
IC50 (HCV NS5B; Table 1): 1.9 to 500 nM | EC50 (HCV replicon; [1]): 1.9 to 500 nM

COC(=O)N1CC23CCC2(C1)CN(C(=O)[C@]12C[C@H]1c1cc(OC)ccc1-c1c(C4CCCCC4)c4ccc(C(=O)NS(=O)(=O)C(C)C)cc4n1C2)C3 (some centres unmarked)
IC50 (HCV NS5B; Table 1): 1.9 to 500 nM | EC50 (HCV replicon; [1]): 1.9 to 500 nM

CNC(=O)N1CC23CCC2(C1)CN(C(=O)[C@]12C[C@H]1c1cc(OC)ccc1-c1c(C4CCCCC4)c4ccc(C(=O)NS(=O)(=O)C(C)C)cc4n1C2)C3 (some centres unmarked) [drawing 99]
IC50 (HCV NS5B; Table 1): < 1.7 nM | EC50 (HCV replicon; [1]): 1.9 to 500 nM

COc1ccc2c(c1)[C@@H]1C[C@]1(C(=O)N1CC34CCC3(CN(C(=O)N3CCCC3)C4)C1)Cn1c-2c(C2CCCCC2)c2ccc(C(=O)NS(=O)(=O)C(C)C)cc21 (some centres unmarked)
IC50 (HCV NS5B; Table 1): 1.9 to 500 nM | EC50 (HCV replicon genotype 1a): 1.9 to 500 nM

COc1ccc2c(c1)[C@@H]1C[C@]1(C(=O)N1CC34CCC3(CN(C)C4)C1)Cn1c-2c(C2CCCCC2)c2ccc(C(=O)NS(=O)(=O)C(C)C)cc21 (some centres unmarked) [drawing 71]
IC50 (HCV NS5B; Table 1): 1.9 to 500 nM | EC50 (HCV replicon; [1]): 1.9 to 500 nM

COc1ccc2c(c1)[C@@H]1C[C@]1(C(=O)N1CC34COCC3(CN(CC(F)(F)F)C4)C1)Cn1c-2c(C2CCCCC2)c2ccc(C(=O)NS(=O)(=O)C(C)C)cc21 (some centres unmarked)
IC50 (HCV NS5B; Table 1): 1.9 to 500 nM | EC50 (HCV replicon genotype 1a): 1.9 to 500 nM

COc1ccc2c(c1)[C@@H]1C[C@]1(C(=O)N1CC34CCC3(C1)C[N+]([O-])(CC(F)(F)F)C4)Cn1c-2c(C2CCCCC2)c2ccc(C(=O)NS(=O)(=O)N(C)C)cc21 (some centres unmarked)
IC50 (HCV NS5B; Table 1): < 1.7 nM | EC50 (HCV replicon genotype 1a): 1.9 to 500 nM

COc1ccc2c(c1)[C@@H]1C[C@]1(C(=O)N1CC34CCC3(C1)CN(C1CC1)C4)Cn1c-2c(C2CCCCC2)c2ccc(C(=O)NS(=O)(=O)N(C)C)cc21 (some centres unmarked)
EC50 (HCV replicon genotype 1a): 1.9 to 500 nM

COc1ccc2c(c1)[C@@H]1C[C@]1(C(=O)N1CC34COCC3(C1)CN(S(=O)(=O)C(C)C)C4)Cn1c-2c(C2CCCCC2)c2ccc(C(=O)NS(=O)(=O)N(C)C)cc21 (some centres unmarked)
IC50 (HCV NS5B; Table 1): < 1.7 nM | EC50 (HCV replicon genotype 1a): 1.9 to 500 nM

COc1ccc2c(c1)[C@@H]1C[C@]1(C(=O)N1CC34CCC3(CN(CC(F)(F)F)C4)C1)Cn1c-2c(C2CCCCC2)c2ccc(C(=O)NS(=O)(=O)N(C)C)cc21 (some centres unmarked)
IC50 (HCV NS5B; Table 1): 1.9 to 500 nM | EC50 (HCV replicon; [1]): 1.9 to 500 nM

COc1ccc2c(c1)C=C(C(=O)N1CC34COCC3(C1)N(C(C)=O)C4)Cn1c-2c(C2CCCCC2)c2ccc(C(=O)NS(=O)(=O)C(C)C)cc21 (centres unmarked)
IC50 (HCV NS5B; Table 1): 1.9 to 500 nM | EC50 (HCV replicon; [1]): 1.9 to 500 nM

COc1ccc2c(c1)[C@@H]1C[C@]1(C(=O)N1CC34CCC3(CN(C(=O)N3CCOCC3)C4)C1)Cn1c-2c(C2CCCCC2)c2ccc(C(=O)NS(=O)(=O)C(C)C)cc21 (some centres unmarked)
IC50 (HCV NS5B; Table 1): 1.9 to 500 nM | EC50 (HCV replicon genotype 1a): 1.9 to 500 nM

COc1ccc2c(c1)[C@@H]1C[C@]1(C(=O)N1CC34COCC3(CN(CC(F)(F)F)C4)C1)Cn1c-2c(C2CCCCC2)c2ccc(C(=O)NS(=O)(=O)N(C)C)cc21 (some centres unmarked)
IC50 (HCV NS5B; Table 1): 1.9 to 500 nM | EC50 (HCV replicon genotype 1a): 1.9 to 500 nM

COc1ccc2c(c1)[C@@H]1C[C@]1(C(=O)N1CC34CCC3(C1)CN(S(=O)(=O)C(C)C)C4)Cn1c-2c(C2CCCCC2)c2ccc(C(=O)NS(=O)(=O)C(C)C)cc21 (some centres unmarked)
IC50 (HCV NS5B; Table 1): 1.9 to 500 nM | EC50 (HCV replicon; [1]): 1.9 to 500 nM

COc1ccc2c(c1)[C@@H]1C[C@]1(C(=O)N1CC34CCC3(C1)N(C(C)=O)C4)Cn1c-2c(C2CCCCC2)c2ccc(C(=O)NS(=O)(=O)C(C)C)cc21 (some centres unmarked)
IC50 (HCV NS5B; Table 1): 1.9 to 500 nM | EC50 (HCV replicon; [1]): 1.9 to 500 nM

COc1ccc2c(c1)[C@@H]1C[C@]1(C(=O)N1CC34CCC3(CN(C(=O)N(C)C)C4)C1)Cn1c-2c(C2CCCCC2)c2ccc(C(=O)NS(=O)(=O)C(C)C)cc21 (some centres unmarked)
IC50 (HCV NS5B; Table 1): 1.9 to 500 nM | EC50 (HCV replicon genotype 1a): 1.9 to 500 nM

COc1ccc2c(c1)[C@@H]1C[C@]1(C(=O)N1CC34CCC3(CN(C(=O)N(C(C)C)C(C)C)C4)C1)Cn1c-2c(C2CCCCC2)c2ccc(C(=O)NS(=O)(=O)N(C)C)cc21 (some centres unmarked)
IC50 (HCV NS5B; Table 1): 1.9 to 500 nM | EC50 (HCV replicon genotype 1a): 1.9 to 500 nM

COc1ccc2c(c1)[C@@H]1C[C@]1(C(=O)N1CC34CCC3(CN(C(=O)N(C(C)C)C(C)C)C4)C1)Cn1c-2c(C2CCCCC2)c2ccc(C(=O)NS(=O)(=O)C(C)C)cc21 (some centres unmarked)
IC50 (HCV NS5B; Table 1): 1.9 to 500 nM | EC50 (HCV replicon genotype 1a): 1.9 to 500 nM

CCOCCN1CC23CCC2(C1)CN(C(=O)[C@]12C[C@H]1c1cc(OC)ccc1-c1c(C4CCCCC4)c4ccc(C(=O)NS(=O)(=O)C(C)C)cc4n1C2)C3 (some centres unmarked)
EC50 (HCV replicon genotype 1a): 1.9 to 500 nM

COc1ccc2c(c1)[C@@H]1C[C@]1(C(=O)N1CC34CCC3(CN(C)C4)C1)Cn1c-2c(C2CCCCC2)c2ccc(C(=O)NS(=O)(=O)C(C)C)cc21 (some centres unmarked) [drawing 108]
IC50 (HCV NS5B; Table 2): 3.5 nM | EC50 (HCV replicon; [2]): 6.96 nM

CNC(=O)N1CC23CCC2(C1)CN(C(=O)[C@]12C[C@H]1c1cc(OC)ccc1-c1c(C4CCCCC4)c4ccc(C(=O)NS(=O)(=O)C(C)C)cc4n1C2)C3 (some centres unmarked) [drawing 111]
IC50 (HCV NS5B; Table 2): < 1.7 nM | EC50 (HCV replicon; [2]): 60 nM

COc1ccc2c(c1)[C@@H]1C[C@]1(C(=O)N1CC34CCC3(C1)CN(S(=O)(=O)C(C)C)C4)Cn1c-2c(C2CCCCC2)c2ccc(C(=O)NS(=O)(=O)N(C)C)cc21 (some centres unmarked)
IC50 (HCV NS5B; Table 1): 1.9 to 500 nM | EC50 (HCV replicon; [1]): 1.9 to 500 nM

Source: patent US8143244B2, “Cyclopropyl fused indolobenzazepine HCV NS5B inhibitors” (Bristol-Myers Squibb Company, priority 2009, dated 2012)
